Test results from ChEMBL document CHEMBL5046228 (Eur J Med Chem, 2022).
pIC50: −log10 of the molar value.

Legend:
NCI-H1299 [1] = test: Induction of apoptosis in human NCI-H1299 cells assessed as increase in necrotic cells at 0.02 uM after 36 hrs by annexin-V-FITC/PI staining based flow cytometric analysis (reference value: 0.75%); assay type: functional
NCI-H1299 [2] = test: Induction of apoptosis in human NCI-H1299 cells assessed as increase in viable cells at 2.5 uM after 36 hrs by annexin-V-FITC/PI staining based flow cytometric analysis (reference value: 94.1%); assay type: functional
NCI-H1975 [3] = test: Induction of apoptosis in human NCI-H1975 cells assessed as increase in early apoptotic cells at 2.5 uM after 36 hrs by annexin-V-FITC/PI staining based flow cytometric analysis (reference value: 1.24%); assay type: functional
NCI-H1299 [4] = test: Induction of apoptosis in human NCI-H1299 cells assessed as increase in late apoptotic cells at 0.02 uM after 36 hrs by annexin-V-FITC/PI staining based flow cytometric analysis (reference value: 4.39%); assay type: functional
NCI-H1299 [5] = test: Induction of apoptosis in human NCI-H1299 cells assessed as increase in early apoptotic cells at 0.5 uM after 36 hrs by annexin-V-FITC/PI staining based flow cytometric analysis (reference value: 0.79%); assay type: functional
NCI-H1975 [6] = test: Induction of apoptosis in human NCI-H1975 cells assessed as increase in late apoptotic cells at 0.5 uM after 36 hrs by annexin-V-FITC/PI staining based flow cytometric analysis (reference value: 3.85%); assay type: functional
NCI-H1975 [7] = test: Induction of cell cycle arrest in human NCI-H1975 cells assessed as accumulation at S phase at 0.1 uM after 36 hrs by PI staining based flow cytometry analysis (reference value: 32.7 %); assay type: functional
NCI-H1975 [8] = test: Induction of apoptosis in human NCI-H1975 cells assessed as increase in necrotic cells at 2.5 uM after 36 hrs by annexin-V-FITC/PI staining based flow cytometric analysis (reference value: 0.35%); assay type: functional
[9] = target: Epidermal growth factor receptor (Homo sapiens, UniProt P00533, EX19DEL); test: Inhibition of EGFR del19 (unknown origin) using flurogenic substrate in presence of ATP by HTRF assay
NCI-H1975 [10] = test: Induction of apoptosis in human NCI-H1975 cells assessed as increase in late apoptotic cells at 0.1 uM after 36 hrs by annexin-V-FITC/PI staining based flow cytometric analysis (reference value: 3.85%); assay type: functional
in vitro = conditions: human
NCI-H1975 [11] = test: Induction of apoptosis in human NCI-H1975 cells assessed as increase in viable cells at 2.5 uM after 36 hrs by annexin-V-FITC/PI staining based flow cytometric analysis (reference value: 94.6%); assay type: functional
NCI-H1299 [12] = test: Induction of apoptosis in human NCI-H1299 cells assessed as increase in viable cells at 0.02 uM after 36 hrs by annexin-V-FITC/PI staining based flow cytometric analysis (reference value: 94.1%); assay type: functional
NCI-H1299 [13] = test: Antiproliferative activity against human NCI-H1299 cells expressing wild type EGFR assessed as inhibition in cell viability after 72 hrs by CCK8 assay; assay type: functional, cell-based; conditions: NCI-H1299, 72 h
A549 = test: Antiproliferative activity against human A549 cells expressing wild type EGFR assessed as inhibition in cell viability after 72 hrs by CCK8 assay; assay type: functional, cell-based; conditions: A549, 72 h
NCI-H1299 [14] = test: Induction of apoptosis in human NCI-H1299 cells assessed as increase in late apoptotic cells at 0.1 uM after 36 hrs by annexin-V-FITC/PI staining based flow cytometric analysis (reference value: 4.39%); assay type: functional
NCI-H1299 [15] = test: Induction of cell cycle arrest in human NCI-H1299 cells assessed as accumulation at G0/G1 phase at 0.02 uM after 36 hrs by PI staining based flow cytometry analysis (reference value: 70.2%); assay type: functional
NCI-H1299 [16] = test: Induction of apoptosis in human NCI-H1299 cells assessed as increase in necrotic cells at 0.1 uM after 36 hrs by annexin-V-FITC/PI staining based flow cytometric analysis (reference value: 0.75%); assay type: functional
NCI-H1975 [17] = test: Induction of apoptosis in human NCI-H1975 cells assessed as increase in necrotic cells at 0.02 uM after 36 hrs by annexin-V-FITC/PI staining based flow cytometric analysis (reference value: 0.35%); assay type: functional
NCI-H1975 [18] = test: Induction of apoptosis in human NCI-H1975 cells assessed as increase in early apoptotic cells at 0.1 uM after 36 hrs by annexin-V-FITC/PI staining based flow cytometric analysis (reference value: 1.24%); assay type: functional
NCI-H1299 [19] = test: Induction of cell cycle arrest in human NCI-H1299 cells assessed as accumulation at G0/G1 phase at 0.5 uM after 36 hrs by PI staining based flow cytometry analysis (reference value: 70.2%); assay type: functional
HCC827 = test: Antiproliferative activity against human HCC827 cells expressing EGFR del119 mutant assessed as inhibition in cell viability after 72 hrs by CCK8 assay; assay type: functional, cell-based; conditions: HCC827, 72 h
[20] = target: Epidermal growth factor receptor (Homo sapiens, UniProt P00533); test: Inhibition of wild type EGFR (unknown origin) using flurogenic substrate in presence of ATP by HTRF assay
NCI-H1299 [21] = test: Induction of cell cycle arrest in human NCI-H1299 cells assessed as accumulation at G2/M phase at 0.1 uM after 36 hrs by PI staining based flow cytometry analysis (reference value: 5.6%); assay type: functional
NCI-H1299 [22] = test: Induction of apoptosis in human NCI-H1299 cells assessed as increase in necrotic cells at 0.5 uM after 36 hrs by annexin-V-FITC/PI staining based flow cytometric analysis (reference value: 0.75%); assay type: functional
NCI-H1299 [23] = test: Induction of cell cycle arrest in human NCI-H1299 cells assessed as accumulation at G0/G1 phase at 2.5 uM after 36 hrs by PI staining based flow cytometry analysis (reference value: 70.2%); assay type: functional
NCI-H1299 [24] = test: Induction of apoptosis in human NCI-H1299 cells assessed as increase in late apoptotic cells at 0.5 uM after 36 hrs by annexin-V-FITC/PI staining based flow cytometric analysis (reference value: 4.39%); assay type: functional
NCI-H1299 [25] = test: Induction of cell cycle arrest in human NCI-H1299 cells assessed as accumulation at S phase at 0.5 uM after 36 hrs by PI staining based flow cytometry analysis (reference value: 24.8%); assay type: functional
NCI-H1975 [26] = test: Induction of cell cycle arrest in human NCI-H1975 cells assessed as accumulation at G2/M phase at 0.02 uM after 36 hrs by PI staining based flow cytometry analysis (reference value: 43.1%); assay type: functional
NCI-H1975 [27] = test: Induction of cell cycle arrest in human NCI-H1975 cells assessed as accumulation at S phase at 0.5 uM after 36 hrs by PI staining based flow cytometry analysis (reference value: 32.7 %); assay type: functional
NCI-H1975 [28] = test: Induction of apoptosis in human NCI-H1975 cells assessed as increase in viable cells at 0.1 uM after 36 hrs by annexin-V-FITC/PI staining based flow cytometric analysis (reference value: 94.6%); assay type: functional
NCI-H1975 [29] = test: Induction of cell cycle arrest in human NCI-H1975 cells assessed as accumulation at S phase at 0.02 uM after 36 hrs by PI staining based flow cytometry analysis (reference value: 32.7 %); assay type: functional

Sequence of Epidermal growth factor receptor (Homo sapiens, UniProt P00533, EX19DEL) (P00533 whole entry, looked up, stated change not applied): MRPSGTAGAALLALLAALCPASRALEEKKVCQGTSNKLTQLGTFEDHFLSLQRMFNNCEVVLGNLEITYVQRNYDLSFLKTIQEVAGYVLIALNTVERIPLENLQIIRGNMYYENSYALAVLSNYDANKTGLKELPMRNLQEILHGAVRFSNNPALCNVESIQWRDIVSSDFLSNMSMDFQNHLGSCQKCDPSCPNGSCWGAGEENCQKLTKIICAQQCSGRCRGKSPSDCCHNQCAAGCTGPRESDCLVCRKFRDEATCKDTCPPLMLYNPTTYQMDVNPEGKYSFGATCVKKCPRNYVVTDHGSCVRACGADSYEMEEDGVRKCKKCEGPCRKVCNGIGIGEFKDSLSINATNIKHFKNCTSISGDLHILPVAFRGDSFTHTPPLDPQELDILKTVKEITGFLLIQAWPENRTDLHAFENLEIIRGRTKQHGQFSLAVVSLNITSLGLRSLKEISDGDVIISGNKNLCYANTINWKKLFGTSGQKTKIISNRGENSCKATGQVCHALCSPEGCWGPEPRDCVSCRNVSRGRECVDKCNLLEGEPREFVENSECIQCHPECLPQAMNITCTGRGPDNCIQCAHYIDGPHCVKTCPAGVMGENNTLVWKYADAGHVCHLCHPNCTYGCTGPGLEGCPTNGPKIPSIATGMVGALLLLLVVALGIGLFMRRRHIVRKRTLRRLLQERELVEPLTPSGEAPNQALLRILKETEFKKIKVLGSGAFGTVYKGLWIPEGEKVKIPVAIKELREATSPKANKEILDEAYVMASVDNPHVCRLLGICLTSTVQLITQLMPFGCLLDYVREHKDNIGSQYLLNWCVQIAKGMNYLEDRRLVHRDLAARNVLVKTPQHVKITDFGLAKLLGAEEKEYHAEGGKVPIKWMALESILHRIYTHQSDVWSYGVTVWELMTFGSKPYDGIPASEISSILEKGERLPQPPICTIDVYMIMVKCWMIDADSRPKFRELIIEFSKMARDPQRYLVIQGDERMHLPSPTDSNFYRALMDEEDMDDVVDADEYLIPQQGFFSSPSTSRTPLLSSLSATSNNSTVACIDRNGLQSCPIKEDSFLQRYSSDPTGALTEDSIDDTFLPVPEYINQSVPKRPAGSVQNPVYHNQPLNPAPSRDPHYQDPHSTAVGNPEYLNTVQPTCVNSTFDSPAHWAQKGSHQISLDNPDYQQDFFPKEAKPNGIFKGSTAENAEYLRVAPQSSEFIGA
Sequence of Epidermal growth factor receptor (Homo sapiens, UniProt P00533) (P00533 whole entry): as the sequence (P00533 whole entry, looked up, stated change not applied) above

What does the source list for `C#CCN(C)CCN(C)c1cc(OC)c(Nc2nccc(Nc3cn(C)c4ccccc34)n2)cc1NC(=O)C=C`?
Activity (NCI-H1299 [1]): 0.65%; Activity (NCI-H1299 [2]): 92.1%; Activity (NCI-H1975 [3]): 45.4%; Activity (NCI-H1299 [4]): 5.17%; Activity (NCI-H1299 [5]): 1.01%; Activity (NCI-H1975 [6]): 8.52%; Activity (NCI-H1975 [7]): 22.7%; Activity (NCI-H1975 [8]): 0.012%; pIC50 [9]: 8.02; Activity (NCI-H1975 [10]): 3.3%; selectivity ratio (in vitro): 38800; Activity (NCI-H1975 [11]): 47.3%; Activity (NCI-H1299 [12]): 93.1%; pIC50 (NCI-H1299 [13]): < 4.00; pIC50 (A549): < 4.00; Activity (NCI-H1299 [14]): 5.69%; Activity (NCI-H1299 [15]): 70.4%; Activity (NCI-H1299 [16]): 0.63%; Activity (NCI-H1975 [17]): 0.038%; Activity (NCI-H1975 [18]): 4.45%; Activity (NCI-H1299 [19]): 68.4%; pIC50 (HCC827): 8.44; pIC50 [20]: < 5.00; Activity (NCI-H1299 [21]): 5.7%; Activity (NCI-H1299 [22]): 0.77%; Activity (NCI-H1299 [23]): 67.5%; Activity (NCI-H1299 [24]): 5.63%; Activity (NCI-H1299 [25]): 25.6%; Activity (NCI-H1975 [26]): 50.2%; Activity (NCI-H1975 [27]): 19.1%; Activity (NCI-H1975 [28]): 92.2%; Activity (NCI-H1975 [29]): 27.3%
